Among the data in PubChem BioAssay (NCI) are GI50 and TGI values, retold here.

Among the test systems are HT29 colon; SNB-75 CNS; HCT-116 colon; SK-MEL-28 melanoma; KM12 colon; HOP-92 NSCLC; U251 CNS; UO-31 renal; MDA-MB-231 breast; NCI-H226 lung.
What all share (assay): growth of human tumour cells (NCI), 48 h

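Compound exposure: 48 hours, 5 concentrations, 96-well plates. GI50 = concentration required for 50% inhibition of growth. TGI: total growth inhibition.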

Take `O=C1Nc2ccc(Br)cc2C12CC(c1ccccc1)=NN2` (stereo not given): the GI50 in the assay with HT29 colon is 4.08 µM; in the assay with SNB-75 CNS, 1.35 µM; in the assay on HCT-116 colon, 4.27 µM; in the assay on SK-MEL-28 melanoma, 7.48 µM; in the assay on KM12 colon, 3.86 µM; in the assay with HOP-92 NSCLC, 1.66 µM. Also, the GI50 was 3.84 µM in the assay on U251 CNS, 4.46 µM in the assay on UO-31 renal, 6.19 µM in the assay on MDA-MB-231 breast and 6.93 µM with NCI-H226 lung. The TGI is 13 µM with HT29 colon; 6.91 µM in the assay on SNB-75 CNS; 17 µM with HCT-116 colon; > 100 µM in the assay with SK-MEL-28 melanoma; 38.8 µM in the assay on KM12 colon; 26.2 µM in the assay with HOP-92 NSCLC. The TGI with U251 CNS was 19.2 µM; with UO-31 renal it was > 100 µM; with MDA-MB-231 breast it was 29.5 µM; in the assay with NCI-H226 lung it was > 100 µM.
For `COc1cc(/C=C2\C(=O)N(Cc3ccc(Cl)cc3)c3ccccc32)cc(OC)c1OC`, the GI50 is 3.27 µM in the assay with HT29 colon; 5.31 µM in the assay on SNB-75 CNS; 1.68 µM in the assay with HCT-116 colon; 1.53 µM in the assay on SK-MEL-28 melanoma; 2.19 µM with KM12 colon; 1.64 µM in the assay with HOP-92 NSCLC. For the same compound, the GI50 with U251 CNS is 1.75 µM; in the assay on UO-31 renal it was 2.06 µM; with MDA-MB-231 breast it was 2.48 µM; with NCI-H226 lung it was 5.2 µM. The TGI in the assay with HT29 colon was > 30.5 µM; in the assay on SNB-75 CNS, > 100 µM; in the assay with HCT-116 colon, 3.19 µM; with SK-MEL-28 melanoma, 3.07 µM; in the assay with KM12 colon it was 5.7 µM; in the assay on HOP-92 NSCLC, 5.74 µM. The TGI with U251 CNS worked out at 3.44 µM; in the assay with UO-31 renal, 6.8 µM; in the assay with MDA-MB-231 breast, 18.4 µM; in the assay on NCI-H226 lung it was 19.9 µM.
`CN(C)c1ccc(/C=C\c2ccnc3ccccc23)cc1`: the GI50 was 2.49 µM in the assay on HT29 colon; 1.44 µM in the assay on SNB-75 CNS; 5.34 µM with HCT-116 colon; 21.7 µM in the assay on SK-MEL-28 melanoma; 3.66 µM in the assay with KM12 colon; 6.23 µM in the assay with HOP-92 NSCLC. The GI50 in the assay on U251 CNS is 9.43 µM; with UO-31 renal it was 4.4 µM; with MDA-MB-231 breast it was 11.3 µM; in the assay with NCI-H226 lung it was 2.86 µM. Further, the TGI in the assay with HT29 colon was 12.4 µM; with SNB-75 CNS it was 8.97 µM; in the assay on HCT-116 colon it was > 52.6 µM; with SK-MEL-28 melanoma, > 80.5 µM; in the assay on KM12 colon, 51 µM; with HOP-92 NSCLC, 60.4 µM. Also, the TGI is > 100 µM in the assay with U251 CNS, 68.7 µM in the assay on UO-31 renal, > 73.9 µM in the assay on MDA-MB-231 breast and 48.2 µM in the assay on NCI-H226 lung.
For the compound `c1ccc(-c2oc(-c3ccccc3)c(CN3CCCCC3)c2CN2CCCCC2)cc1`, the GI50 in the assay with HT29 colon is 1.27 µM; with SNB-75 CNS, 4.13 µM; in the assay on HCT-116 colon it was 1.05 µM; in the assay on SK-MEL-28 melanoma it was 1.53 µM; in the assay with KM12 colon, 2.9 µM; with HOP-92 NSCLC, 1.48 µM. Besides, the GI50 was 3.55 µM with U251 CNS, 2.13 µM in the assay with UO-31 renal, 1.77 µM with MDA-MB-231 breast and 5.19 µM with NCI-H226 lung. For the same compound, the TGI in the assay on HT29 colon came to 13.3 µM; in the assay with SNB-75 CNS, 18.6 µM; in the assay on HCT-116 colon it was 11.2 µM; with SK-MEL-28 melanoma, 3.02 µM; in the assay with KM12 colon, 10.4 µM; in the assay on HOP-92 NSCLC it was 5.89 µM. Also, the TGI stood at 14.2 µM in the assay on U251 CNS, 11.1 µM with UO-31 renal, 6.06 µM in the assay on MDA-MB-231 breast and 22.7 µM in the assay on NCI-H226 lung.
Regarding `CC1CC2C3CCC4=CC(=O)C=CC4(C)C3(F)C(O)CC2(C)C1(O)C(=O)COP(=O)(O)O` (stereo not given), the GI50 in the assay with HT29 colon, in the assay on SNB-75 CNS, in the assay with HCT-116 colon, in the assay with SK-MEL-28 melanoma, in the assay on KM12 colon and with HOP-92 NSCLC was > 500 µM throughout. The GI50 in the assay with U251 CNS, with UO-31 renal, with MDA-MB-231 breast and with NCI-H226 lung was > 500 µM each time. Further, the TGI in the assay with HT29 colon, with SNB-75 CNS, in the assay with HCT-116 colon, in the assay with SK-MEL-28 melanoma, with KM12 colon and in the assay on HOP-92 NSCLC was > 500 µM each time. Further, the TGI with U251 CNS, in the assay on UO-31 renal, in the assay on MDA-MB-231 breast and with NCI-H226 lung was > 500 µM each time.
In the case of `CSc1ccc(C2=C(c3ccccc3)C(=O)OC2)cc1`, the GI50 in the assay on HT29 colon is 0.239 µM; in the assay with SNB-75 CNS it was 5.67 µM; with HCT-116 colon, 0.637 µM; in the assay with SK-MEL-28 melanoma, 6.69 µM; in the assay with KM12 colon it was 0.356 µM; with HOP-92 NSCLC, 2.13 µM. Moreover, the GI50 in the assay on U251 CNS is 0.329 µM; with UO-31 renal, 2.66 µM; with MDA-MB-231 breast, 0.425 µM; in the assay on NCI-H226 lung it was 4.3 µM. Besides, the TGI in the assay with HT29 colon was > 100 µM; in the assay on SNB-75 CNS, > 100 µM; in the assay on HCT-116 colon, 61.7 µM; in the assay with SK-MEL-28 melanoma, > 100 µM; in the assay on KM12 colon, > 77 µM; in the assay on HOP-92 NSCLC, 44.7 µM. The TGI with U251 CNS was 7.05 µM; in the assay on UO-31 renal it was > 80.3 µM; in the assay on MDA-MB-231 breast, 20.9 µM; in the assay with NCI-H226 lung, 53.3 µM.
As to `COc1ccc(C(O)c2cc3c(N)c(C(=O)Nc4ccc(Cl)cc4)sc3nc2C)cc1` (stereo not given), the GI50 with HT29 colon was 2.49 µM; with SNB-75 CNS, 1.88 µM; in the assay with HCT-116 colon, 2.01 µM; with SK-MEL-28 melanoma, 6.49 µM; in the assay on KM12 colon, 1.64 µM; in the assay on HOP-92 NSCLC it was 2.37 µM. The GI50 in the assay with U251 CNS is 2.28 µM; in the assay on UO-31 renal, 3.8 µM; in the assay on MDA-MB-231 breast, 4.9 µM; in the assay on NCI-H226 lung it was 2.85 µM. Moreover, the TGI with HT29 colon worked out at 8.73 µM; in the assay with SNB-75 CNS, 7.25 µM; in the assay with HCT-116 colon, 14.3 µM; with SK-MEL-28 melanoma, 57.7 µM; with KM12 colon, 7.1 µM; in the assay with HOP-92 NSCLC it was 18.3 µM. Besides, the TGI came out at 15.8 µM in the assay on U251 CNS, 23 µM with UO-31 renal, 28.8 µM with MDA-MB-231 breast and 9.47 µM with NCI-H226 lung.
Turning to `O=C1NC(=NCCc2ccc(F)cc2)S/C1=C\c1ccc2ncccc2c1`, the GI50 in the assay on HT29 colon was > 25 µM; in the assay on SNB-75 CNS, > 25 µM; in the assay on HCT-116 colon it was 13.8 µM; with SK-MEL-28 melanoma, > 25 µM; with KM12 colon, > 25 µM; in the assay with HOP-92 NSCLC, > 25 µM. Besides, the GI50 in the assay with U251 CNS, in the assay on UO-31 renal, in the assay on MDA-MB-231 breast and in the assay on NCI-H226 lung was > 25 µM throughout. Also, the TGI with HT29 colon, with SNB-75 CNS, in the assay on HCT-116 colon, in the assay on SK-MEL-28 melanoma, in the assay with KM12 colon and with HOP-92 NSCLC was > 25 µM throughout. In addition, the TGI with U251 CNS, in the assay with UO-31 renal, with MDA-MB-231 breast and in the assay on NCI-H226 lung was > 25 µM throughout.
As to `CCOC(=O)[C@@H](C)C[C@H](Cc1ccccc1)NC(=O)c1csc([C@@H](C[C@H](C(C)C)N(C)C(=O)[C@@H](NC(=O)[C@H]2CCCCN2C)C(C)(C)CC)OC(C)=O)n1`, the GI50 was < 0.00167 µM with HT29 colon; < 0.00167 µM with SNB-75 CNS; < 0.00167 µM with HCT-116 colon; 1.2 µM in the assay on SK-MEL-28 melanoma; < 0.00167 µM with KM12 colon; 0.0019 µM in the assay with HOP-92 NSCLC. Also, the GI50 with U251 CNS was < 0.00167 µM; in the assay with UO-31 renal, 0.0132 µM; with MDA-MB-231 breast, 0.00283 µM; in the assay with NCI-H226 lung it was < 0.00167 µM. In addition, the TGI in the assay on HT29 colon is > 6.79 µM; in the assay with SNB-75 CNS, 13.9 µM; with HCT-116 colon it was 3.02 µM; in the assay on SK-MEL-28 melanoma, > 16.7 µM; in the assay on KM12 colon, > 16.7 µM; in the assay on HOP-92 NSCLC, 5.69 µM. Moreover, the TGI with U251 CNS is > 7.64 µM; in the assay on UO-31 renal, 14.1 µM; in the assay on MDA-MB-231 breast, 1.18 µM; in the assay with NCI-H226 lung, 0.0336 µM.
In the case of `CC(C)=CCc1cc2c(cc1O)C1=C(C(=O)C3=C(C1=O)S(=O)(=O)CCN3)C(C=C(C)C)O2` (stereo not given), the GI50 in the assay on HT29 colon was 0.634 µM; with SNB-75 CNS, 1.39 µM; in the assay on HCT-116 colon, 0.474 µM; in the assay on SK-MEL-28 melanoma it was 0.541 µM; in the assay with KM12 colon, 2.05 µM; in the assay with HOP-92 NSCLC it was 3.31 µM. The GI50 is 1.24 µM in the assay on U251 CNS, 1.82 µM in the assay on UO-31 renal, 0.374 µM in the assay on MDA-MB-231 breast and 1.6 µM in the assay on NCI-H226 lung. Besides, the TGI in the assay on HT29 colon was found to be 2.22 µM; with SNB-75 CNS, 3.72 µM; in the assay on HCT-116 colon, 1.77 µM; in the assay on SK-MEL-28 melanoma, 1.92 µM; in the assay on KM12 colon, 6.99 µM; in the assay on HOP-92 NSCLC, 7.61 µM. In addition, the TGI was 3.74 µM with U251 CNS, 4.59 µM in the assay on UO-31 renal, 1.61 µM with MDA-MB-231 breast and 5.22 µM with NCI-H226 lung.
In the case of `O=C(O)C1=C/C(=C(/c2ccccc2)c2cc(C(=O)O)c(O)c3ccccc23)c2ccccc2C1=O`, the TGI in the assay on HT29 colon, in the assay on SNB-75 CNS, with HCT-116 colon, in the assay on SK-MEL-28 melanoma, with KM12 colon and in the assay with HOP-92 NSCLC was > 100 µM each time. Also, the TGI in the assay with U251 CNS, with UO-31 renal, in the assay on MDA-MB-231 breast and in the assay with NCI-H226 lung was > 100 µM in each case.
